Values joined by “and” are separate entries in the source; they are usually repeats but may differ in a detail not shown here. Identical values can stand only once.

The test system of the assay is HEK293T viability, CellTiter-Glo ATP luminescence, 72 h. Description: ATP-based viability loss in HEK293T cells – cell-based, CellTiter-Glo luminescence, cherry-pick, set 3, cytotoxicity control, dose response (AID 720588).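 Also: potency for luminescence loss meaning cytotoxic compounds.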
Regarding `CC12CCC3C(CCC4(O)CC(O)CCC34C=NO)C1(O)CCC2C1=COC(=O)C1` (centres undefined), the AC35 was 0.25 µM. Then `O=C1c2ccccc2C(=O)c2cc(N3CCCCC3)ccc21`, with 6.31 µM. Then `CC(C)=CCC/C(C)=C/CN1C(=O)N(c2ccc(F)cc2)[C@H]2C[C@@H](c3ccccc3)[C@@H](C)[C@@H](C(=O)N3CCOCC3)C[C@H]21`, with 2.01 µM; and `N#C[C@@H]1[C@H](c2ccc(C#Cc3ccc(F)cc3)cc2)[C@@H](CO)N1C(=O)Nc1ccc(F)cc1`, with 12.6 µM; and `CNC[C@H](CC1CCCCC1)NC[C@H](CO)NCCc1cccc(C(F)(F)F)c1`, with 10.8 µM. With `CC1=NN(c2ccc(C)cc2)C(=O)/C1=C\C=C\c1ccccc1`, the AC35 is 14.3 µM. Then `C[C@@H]1CN([C@@H](C)CO)C(=O)c2cccc(NS(=O)(=O)c3ccc(Cl)cc3)c2O[C@@H]1CN(C)Cc1ccc(C(=O)Nc2ccccc2N)cc1`, with 6.6 µM.

Consider `NC(Cc1ccc(C(F)(F)F)cc1)c1csc(NC(=O)Nc2ccccc2Cc2ccccc2)n1` (centres undefined), for which the AC35 was 12.4 µM. Turning to `COC1C(O)C(C)OC(OC2CCC3(C)C(CCC4C3C(O)CC3(C)C(C5=CC(=O)OC5)CCC43O)C2)C1O` (centres undefined), the AC35 was 0.244 µM.

As for `CC1OC(OC2CC(O)C3(CO)C4C(O)CC5(C)C(C6=CC(=O)OC6)CCC5(O)C4CCC3(O)C2)C(O)C(O)C1O` (centres undefined), the AC35 was 0.0877 µM. Then `O=C(Nc1ccc(Br)cc1)c1ccc(F)c(S(=O)(=O)N2CCN(c3ccccn3)CC2)c1`, with 8.36 µM; and `C[C@@H]1CN([C@H](C)CO)S(=O)(=O)c2ccc(C#CC(C)(C)O)cc2O[C@H]1CN(C)Cc1ccc(-c2ccccc2)cc1`, with 7.28 µM.

As to `C[C@H](CO)N1C[C@H](C)[C@H](CN(C)Cc2ccc(C(=O)Nc3ccccc3N)cc2)Oc2ccc(NC(=O)C3CC3)cc2CC1=O`, the AC35 is 3.6 µM.

For the compound `Oc1c(C(c2ccc(Cl)cc2)N2CCCC2)cc(Cl)c2cccnc12` (centres undefined), the AC35 is 6.54 µM. Then `COc1ccc(OC)c(-c2nnc3n2N=C(c2ccc(OC)c(OC4CCOC4)c2)CS3)c1` (centres undefined), with 9.24 µM; and `CC1=NN(c2ccccc2)C(=O)/C1=C\C=C\c1ccccc1`, with 19.6 µM; and `CN=c1scc(-c2cccs2)n1/N=C/c1ccccc1O`, with 10.5 µM. For `C(=NNc1ccc2ccccc2n1)c1ccccn1`, the AC35 is 1.62 µM. Then `C[C@@H]1CN([C@@H](C)CO)C(=O)Cc2cc(N(C)C)ccc2O[C@H]1CN(C)Cc1ccc(C(=O)Nc2ccccc2N)cc1`, with 7.46 µM; and `CCCCc1c(-c2ccccc2OC)ncn1Cc1ccc(C(C)(C)C)cc1`, with 6.42 µM; and `O=c1c(Cl)cc(Cl)nn1-c1ccccc1`, with 19.2 µM. The result for `COc1ccc(NC(=O)N2CCCCN3[C@@H](CO)[C@H](c4ccc(C5=CCCCC5)cc4)[C@@H]3C2)cc1` reads 10 µM. The result for `C[C@@H]1CN([C@@H](C)CO)C(=O)c2cccc(NS(=O)(=O)c3ccccc3)c2O[C@@H]1CN(C)Cc1ccc(C(=O)Nc2ccccc2N)cc1` reads 2.29 µM. On to `Cc1cc(C)cc(N2C(=O)NC(=O)/C(=C\C=C\c3ccco3)C2=O)c1`, for which the AC35 was 10.6 µM. As for `C[C@H](O)C#Cc1ccc2c(c1)O[C@@H](CN(C)Cc1ccc(-c3ccccc3)cc1)[C@H](C)CN([C@@H](C)CO)S2(=O)=O`, the AC35 was 14.7 µM and 11.2 µM.

Take `O=c1ccc2[n+]([O-])c3ccc(O)cc3oc-2c1`: the AC35 is 4.57 µM.

As to `C[C@H]1CN([C@@H](C)CO)S(=O)(=O)c2ccc(C#Cc3ccncc3)cc2O[C@@H]1CN(C)S(=O)(=O)c1ccccc1`, the AC35 is 12.3 µM.

Regarding `Cc1ccccc1S(=O)(=O)N1CC[C@@H]2[C@@H](CO)Nc3ccc(-c4ccc(C#N)cc4)cc3[C@@H]21`, the AC35 was 14.8 µM. The result for `C[C@]12CC[C@H]3[C@@H](CC[C@]4(O)C[C@@H](O)CC[C@]34C=O)[C@@]1(O)CC[C@@H]2C1=CC(=O)OC1` reads 0.774 µM. The result for `COc1ccc(CC(N)c2csc(NC(=O)Nc3cccc(C(F)(F)F)c3)n2)cc1` (centres undefined) reads 10.1 µM; that for `CCCCCCCCCCCCCCCCn1cc[n+](C)c1`, 10.5 µM; that for `COc1ccc(-c2cn(-c3ccc(OC)cc3)c3[n+]2-c2ccccc2CC3)cc1`, 7.06 µM. In the case of `CCCCCCCN(c1ccccc1)[C@@H]1C[C@H]2CCCC(=O)N3CC[C@@H](C1)[C@@H]23`, the AC35 is 13.3 µM. As to `C=C1C(=O)OC2C1CCC(C)C1(O)C=CC(=O)C21C` (centres undefined), the AC35 is 9.94 µM. Then `Oc1cccc(-c2nnc(-c3cccc(O)c3)nn2)c1`, with 7.1 µM. As to `CCOc1ccc(N=Nc2ccc(O)c3ncccc23)cc1`, the AC35 was 13.4 µM. On to `CC1(C)N=C(N)N=C(N)N1c1ccc(OCCCOc2ccccc2)c(Cl)c1`, for which the AC35 is 11.1 µM.

For `C=CCOC(=O)c1sc(NC(=O)c2ccc(OC)cc2)nc1C`, the AC35 was 0.901 µM.

For the compound `C[C@@H]1CN([C@@H](C)CO)C(=O)c2cc(NC(=O)c3ccccc3)ccc2O[C@@H](C)CCCCO[C@H]1CN(C)C(=O)Nc1cccc2ccccc12`, the AC35 was 0.637 µM.

These data come from PubChem BioAssay AID720588 (Broad Institute, 2013).
